Reference: publication PMC3288537 (ACS Chemical Biology, 2011)

Molecular target: T1, HePTP (Homo sapiens, UniProt P35236)
T1 sequence (P35236 1-360): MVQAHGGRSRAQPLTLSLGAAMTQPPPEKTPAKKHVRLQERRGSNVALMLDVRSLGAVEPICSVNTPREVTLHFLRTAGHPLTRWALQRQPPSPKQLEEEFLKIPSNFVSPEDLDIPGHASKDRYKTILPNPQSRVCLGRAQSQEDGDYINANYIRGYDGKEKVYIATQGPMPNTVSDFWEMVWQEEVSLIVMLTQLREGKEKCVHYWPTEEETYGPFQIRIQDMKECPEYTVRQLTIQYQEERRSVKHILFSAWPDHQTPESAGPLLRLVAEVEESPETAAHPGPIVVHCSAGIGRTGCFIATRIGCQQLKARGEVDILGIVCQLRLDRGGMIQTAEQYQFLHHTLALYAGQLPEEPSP
Assay: Dose-response OMFP phosphatase assay, HePTP
Assay type: biochemical
Settings: OMFP substrate

O=C(O)c1ccccc1 [benzoic acid, reference compound]
activity against HePTP (in words): did not inhibit
